Laboratory results reported in patent US20100092459A1, “Protein Complex and Uses” (IMPERIAL INNOVATIONS LIMITED, priority 2006, published 2010).
Each block holds one molecule with its values, some of them ahead of it.

Experiments:
[1] = system: FGF-2-mediated ERK phosphorylation in H510 cells; test: FGF-2-induced ERK phosphorylation in H510 cells, Western blot for biphospho-ERK; assay type: cell-based; conditions: for inhibition of FGF-2-mediated ERK phosphorylation: dose range of inhibitor 1 h, then FGF-2 0.1 ng/ml 5 min
Method: (B) Representative blots from (A) were quantified by optical densitometry normalised for actin. (C) H69 cells transfected with empty (V) or a wt-PKCε-GFP expressing vector (a) were analysed for phospho-ERK, XIAP and Bcl-XL levels. (D) Baseline level cell death in V-H69 and ε-H69 cells growing in 10% FCS was determined by flow cytometry using Annexin V staining. (E) ε-H69 and V-H69 cells in SFM were treated with or without 0.1 μM etoposide (VP-16) and cell numbers determined 96 h later. Conditions were performed in quadruplicates and the average cell number±SEM represented as fold over untreated. (F) H510 cells in SFM were treated with or without 40 μM ε-TITAT, ΕTI-TITAT or TITAT for 4 h prior to stimulation for 5 min with or without FGF-2 (0.1 ng/ml). Cell lysates were Western-blotted for biphospho-ERK. […] (G) H510 cells transfected with PKCε or scrambled (sc) siRNA were stimulated with or without FGF-2. Lysates were analysed for PKCε levels and Erk phosphorylation. (A, C, F and G) Lamin B and actin immunodetection were used as loading controls.
(A) H510 cells were treated with or without a dose range of GF109203X (GF), Gö6976 (Go), Hispidin (His), BAPTA (BA) or Rottlerin (Rot) for 1 h prior to stimulation for 5 min in the presence or absence of either FGF-2 (0.1 ng/ml) or PDBu (400 nM). Cell lysates were analysed by SDS-PAGE/Western-blotting for biphospho-ERK. Lamin immunodetection was used as loading control. (B-top panel) Equal protein amounts from SCLC cell lines were compared for their PKC expression pattern. (B-bottom panel) SCLC cells in SFM were stimulated with and without FGF-2 for 5 min and cell lysates analysed by SDS-PAGE/WB for Erk phosphorylation. PKCε and PKCα levels (ODs from left panel) were compared to the ability to phosphorylate Erk in these SCLC cell lines. Results shown are representative of at least three independent experiments.
The PKCε translocation inhibitor ([…]) and PKCα translocation inhibitor ([…]) (Souroujon and Mochly-Rosen, 1998; Yedovitzky et al., 1997) were made cell-permeable by linkage to the HIV-derived TITAT sequence ([…]). H510 cells in RPMI were incubated for 4 h with 40 μM of either translocation inhibitor peptides or TITAT prior to further treatments. The activity of these inhibitors on ERK phosphorylation was assessed by Western Blotting.

S6K2 [2] = test: S6K2 immune complex kinase assay (S6-peptide substrate), ε-H69 cells; assay type: cell-based; conditions: ε-H69 cells (PKCε over-expressing), 40 μM peptide 4 h
Method: (§1) Cell lysates were subjected to immunoprecipitation with a PKCε antibody prior to Western blotting (WB) for the molecules indicated. (A-lower panel) Total cell lysate was Western-blotted as indicated. (B and E) […] was immunoprecipitated from V-H69 and ε-H69 (B) or […] cells (E) following 4 h treatment with or without ε[…] and TITAT. Immunoprecipitates were subjected to in-vitro kinase assays with S6-peptide as a substrate and the results shown are average cpm±SEM from triplicates of a representative experiment. (C) The phosphorylation of the endogenous V-H69 and -H69 cells in SFM were washed three times in RPMI 1640, and 2×10^6 cell aliquots were incubated in this medium for 30 min at 37° C. Cells were treated in the presence or absence of 40 μM ([…] or TITAT peptide for 4 h as indicated, prior to performing an immune complex kinase assay for S6K1 or […] as described (Pardo et al., 2001). In separate experiments, HEK293Tet cells expressing tetracycline-inducible kinase active cytoplasmic forms of S6K1 or […] were incubated with or without tetracycline prior to lysis and immune complex kinase assay.

S6K2 [3] = test: S6K2 immune complex kinase assay, FGF-2-stimulated H510 cells; assay type: cell-based; conditions: peptide 4 h
Method: as §1

S6 protein = test: Phosphorylation of endogenous S6 protein in ε-H69 cells (phospho-S6 antibody); assay type: cell-based; conditions: ε-H69 cells in SFM
Method: S6 protein from V-H69 and ε-H69 cells in SFM treated with or without εTI-TITAT was determined using a phospho-S6 antibody. (D and F) PKCε KO MEFs re-expressing (KO+ε) or not (KO) […] were (D) grown in 10% FCS and analysed for phospho-S6 levels or (F) stimulated with or without FGF-2 and FCS prior to S6K2 immunoprecipitation and Western blotted as indicated. (C and D) Lamin B and actin immunodetection were used as a loading control. (A-F) Results shown are representative of at least 3 independent experiments.

Bcl-XL and XIAP = Bcl-XL and XIAP expression in HEK293Tet cells, Western blot; assay type: cell-based
Method: (§2) HEK 293-Tet clones transfected with an inducible vector for kinase active S6K1 (1KA), S6K2 (2KA) or empty vector were treated with tetracycline for 6 h prior to (A) Western-blotting (WB) as indicated or (B) S6K1 or 2 kinase assay using an S6 peptide as substrate. (C) V-, 1KA- and 2KA-293 cells were incubated in the absence of tetracycline with (white bars) or without (hatched bars) serum for 18 h or with tetracycline in the absence of serum (black bars) and the proportion of apoptotic cells determined using annexin V staining. (D) Cell lysates from 2KA and 1KA-293 cells treated with or without tetracycline, FGF-2 and PD098059 were analysed for Bcl-XL expression and S6 phosphorylation. (E) HEK 293 cells incubated with or without FGF-2 (4h) prior to serum deprivation (18 h) were analysed by annexin V staining. (A, D, F) Actin and lamin B immunodetections were used as a loading control. (B, C, E) Results represent the average of triplicates±SEM. (A-E) Results are representative of at least three independent experiments.
(A and B) HEK293 expressing tetracycline-inducible kinase-active S6K1 (1KA) or 2 (2KA) were treated with or without tetracycline for 6 h (B) or the time indicated (A). (A) Cells were grown in the absence of FCS and a cell death time-course performed. Cell death was assessed microscopically by determining Trypan blue positivity. Results shown are averages±SEM of triplicates. (C) HEK293 cells were treated for 1 h with or without 25 μM PD098059 prior to stimulation with FGF-2 for 4 h. (B and C) Cell lysates were analysed by SDS-PAGE/WB for the levels of Bcl-XL and XIAP. Actin was used as a loading control. Results shown are representative of at least three independent experiments.

HEK293Tet cells = test: Survival of HEK293Tet cells after serum deprivation (annexin V); assay type: cell-based; conditions: FGF-2 4 h before serum deprivation 18 h
Method: as §2
SCLC cells (5×10^4 cells/ml SFM) were pre-treated with or without 0.1 ng/ml FGF-2 for 4 h prior to treatment with 0.1 μM etoposide and incubated at 37° C. for 96 h. […] The proportion of cell death was either determined by trypan blue exclusion or by Annexin V staining and flow cytometry as previously described (Pardo et al., 2002).

S6K2 (human) = S6K2 (human) (UniProt Q9UBS0)
[4] = 40 μM peptide 4 h, FGF-2 0.1 ng/ml 5 min

Molecule: εTI-TITAT (EAVSLKPTGRKKRRQRRRPPQ)
inhibition of ERK phosphorylation in response to FGF-2 [1, 4]: 60%
effect on basal S6K2 activity (S6K2 [2]): lowered S6K2 activity in ε-H69 cells to a level comparable to that found in V-H69 cells
inhibition of FGF-2-induced S6K2 activation (S6K2 [3]): inhibited
effect on increased S6 phosphorylation (S6 protein): prevented

Molecule: CN(C)CCCn1cc(C2=C(c3c[nH]c4ccccc34)C(=O)NC2=O)c2ccccc21 [GF109203X]
inhibition of FGF-2-mediated ERK phosphorylation [1]: inhibited

Molecule: O=c1cc(O)cc(/C=C/c2ccc(O)c(O)c2)o1 [Hispidin]
inhibition of FGF-2-mediated ERK phosphorylation [1]: Only GF109203X and Rottlerin inhibited

Molecule: O=C(O)CN(CC(=O)O)c1ccccc1OCCOc1ccccc1N(CC(=O)O)CC(=O)O [BAPTA]
inhibition of FGF-2-mediated ERK phosphorylation [1]: Only GF109203X and Rottlerin inhibited

Molecule: FGF-2: fibroblast growth factor-2, purchased from Calbiochem
Bcl-XL and XIAP expression (Bcl-XL and XIAP; HEK293Tet cells stimulated with FGF-2): increased
survival (HEK293Tet cells): increased survival

basal S6K2 activity (immune complex kinase assay with S6-peptide) (S6K2 (human)): 2 fold
Molecule: wt-PKCε-GFP (enzyme)

Molecule: Cn1c2ccccc2c2c3c(c4c5ccccc5n(CCC#N)c4c21)CNC3=O [Gö6976]
inhibition of FGF-2-mediated ERK phosphorylation [1]: Only GF109203X and Rottlerin inhibited

Molecule: TITAT (GRKKRRQRRRPPQ)
inhibition of ERK phosphorylation in response to FGF-2 (in words) [1, 4]: neither αTI-TITAT nor TITAT inhibited
effect on basal S6K2 activity (S6K2 [2]): no effect
inhibition of FGF-2-induced S6K2 activation (S6K2 [3]): but not by αTI-TITAT or TITAT

Molecule: COc1cccc(-c2cc(=O)c3ccccc3o2)c1N [PD098059]
block of FGF-2-induced Bcl-XL and XIAP expression (Bcl-XL and XIAP; HEK293 cells, 25 μM PD098059 1 h before FGF-2 4 h): could be blocked
suppression of increased Bcl-XL and XIAP expression (Bcl-XL and XIAP; KA-S6K2 HEK293Tet cells, tetracycline induced): could not be suppressed

Molecule: αTI-TITAT (SLNPEWNETGRKKRRQRRRPPQ)
inhibition of ERK phosphorylation in response to FGF-2 (in words) [1, 4]: neither αTI-TITAT nor TITAT inhibited
effect on basal S6K2 activity (S6K2 [2]): no effect
inhibition of FGF-2-induced S6K2 activation (S6K2 [3]): but not by αTI-TITAT or TITAT

Molecule: CC(=O)c1c(O)c(C)c(O)c(Cc2c(O)c3c(c(C(=O)/C=C/c4ccccc4)c2O)OC(C)(C)C=C3)c1O [Rottlerin]
inhibition of FGF-2-mediated ERK phosphorylation [1]: inhibited
